From patent EP0374249A1, “METHOD OF STERILIZING PLANT POLLEN” (VSESOJUZNY NAUCHNO-ISSLEDOVATELSKY INST. SELSKOKHOZYAISTV. …, priority 1988, dated 1989)

Assays:
[1] = tested on: Winterweizens Sorte Mir.onovskaya 808; test: Field test of pollen sterilisation (gametocidal activity), winter wheat Mironovskaya 808; assay type: in vivo, Winterweizen; settings: 2% aqueous emulsion, 20 kg/ha; for Prozentsatz der Sterilität / Anzahl von Körnern der Ähre bei freier Bestäubung / Anzahl von Körnern der Ähre im Isolator: period V of organogenesis; for Anzahl von Körnern der Ähre bei freier Bestäubung: free pollination; for Anzahl von Körnern der Ähre im Isolator: isolated ears; for Prozentsatz des Ansetzens von Körnern bei freier Bestäubung: period V, non-isolated control ears = 100%
From the text: Als Emulgierungsmittel wird 0,1 Masse% Kalziumalkylbenzolsulfonat mit 12 bis 14 Kohlenstoffatomen hinzugefügt. Als Adjuvans fährt man in die Emulsion 0,01 Masse% Dimethylsulfoxid ein. Der Verbrauch an Präparat beträgt 20 kg/ha. Als Kontrolle dienen Pflanzen, behandelt mit einem Verdünner ohne Sterilisationsmittel.

[2] = tested on: Winterweizens Sorte Bezostaya 1; test: Field test of pollen sterilisation, winter wheat Bezostaya 1; assay type: in vivo, Winterweizen; settings: 2% aqueous emulsion, 16 kg/ha; for Prozentsatz der Sterilität / Anzahl von Körnern der Ähre bei freier Bestäubung / Anzahl von Körnern der Ähre im Isolator: period V of organogenesis; for Anzahl von Körnern der Ähre bei freier Bestäubung: free pollination; for Anzahl von Körnern der Ähre im Isolator: isolated ears; for Prozentsatz des Ansetzens von Körnern bei breier Bestäubung: period V, non-isolated control ears = 100%
From the text: Pflanzen des Winterweizens Sorte Bezostaya 1 werden in der V. Periode der Organogenese durch Zerstäubung einer 2%igen wässrigen Emulsion von N-(2-Dimethylaminoäthyl)-maleaminsäure, N-(3-Dimethylaminopropyl)-maleaminsäure, N-Äthylmaleaminsäure, N-(2-Hydroxyäthyl)-maleaminsäure, N-Karbamoylmaleaminsäure mit Hilfe deiner Rückspritze behandelt. Die Emulsion enthält 0,1 Masse% Kalziumalkylbenzolsulfonat mit 12 bis 14 Kohlenstoffatomen. Als Adjuvans führt man in die Emulsion 0,01 Masse% Tetrahydrofuran ein.
Der Verbrauch an Präparat beträgt 16 kg/ha. Als Kontrolle dienen Pflanzen, behandelt mit einem Verdünner ohne Sterilisationsmitteln.

[3] = tested on: Sommerweizens Sorte Moskovskaya 35; test: Field test of pollen sterilisation, spring wheat Moskovskaya 35; assay type: in vivo, Sommerweizen; settings: 1% aqueous emulsion, 10 kg/ha; for Prozentsatz der Sterilität / Anzahl von Körnern der Ähre bei freier Bestäubung / Anzahl von Körnern der Ähre im Isolator: period V of organogenesis; for Anzahl von Körnern der Ähre bei freier Bestäubung: free pollination; for Anzahl von Körnern der Ähre im Isolator: isolated ears; for Prozentsatz des Ansetzens von Körnern bei freier Bestäubung: period V, non-isolated control ears = 100%
From the text: Pflanzen des Sommerweizens Sorte Moskovskaya 35 werden in V. Periode der Organogenese (nach Kupermann) mit einer 1%igen wässrigen Emulsion von N-(2-Dimethyl-aminoäthyl)-maleaminsäure, N-(3-Dimethylaminopropyl)-maleaminsäure, N-Äthylmaleaminsäure, N-(2-Hydroxyäthyl) maleaminsäure bzw. N-Karbamoylmaleaminsäure behandelt. Die Emulsion enthält 0,5 Masse% Kalziumalkylbenzolsulfonat mit 12 bis 14 Kohlenstoffatomen als Emulgierungsmittel und 0,01 Masse% Dimethylformamid als Adjuvans. Der Verbrauch an Präparat beträgt 10 kg/ha. Als Kontrolle dienen Pflanzen, behandelt mit einem Verdünner ohne Sterilisationsmittel.

[4] = tested on: Sommerweizens Sorte Botanicheskaya 4; test: Field test of pollen sterilisation, spring wheat Botanicheskaya 4; assay type: in vivo, Sommerweizen; settings: 1% aqueous emulsion, 6 kg/ha; for Prozentsatz der Sterilität / Anzahl von Körnern der Ähre bei freier Bestäubung / Anzahl von Körnern der Ähre im Isolator: period V of organogenesis; for Anzahl von Körnern der Ähre bei freier Bestäubung: free pollination; for Anzahl von Körnern der Ähre im Isolator: isolated ears; for Prozentsatz des Ansetzens von Körnern bei freier Bestäubung: period V, non-isolated control ears = 100%
From the text: Pflanzen des Sommerweizens Sorte Botanicheskaya 4 werden in der V. Periode der Organogenese (nach Kupermann) mit einer 1%igen Wässrigen Emulsion von N-(2-Dimethyl-aminoäthyl)-maleaminsäure, N-(3-Dimethylaminopropyl)-maleaminsäure, N-Äthylmaleaminsäure, N-(2-Hydroxyäthyl)-maleaminsäure bzw. N-Karbamoylmaleaminsäure behandelt. Die Emulsion enthält 0,5 Masse% Kalziumalkylbenzolsulfonat mit 12 bis 14 Kohlenstoffatomen und 0,01 Masse% Dimethylsulfoxid als Adjuvans. Der Verbrauch an Präparat beträgt 6 kg/ha. Als Kontrolle dienen Pflanzen, behandelt mit einem Verdünner ohne Sterilisationsmittel.

[5] = tested on: tetraploidem Roggen Sorte Belta; test: Field test of pollen sterilisation, tetraploid rye Belta; assay type: in vivo; settings: 1% aqueous emulsion, 10 kg/ha; for Prozentsatz der Sterilität / Anzahl von Körnern der Ähre bei freier Bestäubung / Anzahl von Körnern der Ähre im Isolator: period V of organogenesis; for Anzahl von Körnern der Ähre bei freier Bestäubung: free pollination; for Anzahl von Körnern der Ähre im Isolator: isolated ears; for Prozentsatz des Ansetzens von Körnern bei freier Bestäubung: period V, non-isolated control ears = 100%
From the text: (§1) Die gametozide Aktivität der erfindungsgemässen Sterilisationsmittel war im Feldversuch in verschiedenen Bodenklimatischen Zonen mit Teilstücken von 10 m^2 Grösse in drei- bis viermaliger Wiederholung nachgewiesen. Jedes Sterilisationsmittel wurde mindestens 5 Jahre lang geprüft.
(§2) Die Entwicklung der Perioden der Organogenese wird zytologischüberwacht. Die Behandlung von Pflanzen mit dem Sterilisationsmittel erfolgt am Anfang der fünften Periode der Organogenese nach Kupermann.
(§3) Mit dem Ahrenschiebe verwirklicht man die Isolierung von Hauptähren und anderen Stockwerken in Pergamentbeuteln. Bei Weizen und Tritikale werden Einzelisolatoren verwendet. Bei Roggen schliesst man je Ähre 5 bis 7 verschiedene nebeneinander befindliche Pflanzen unter einen gemeinsamen Isolator ein. Bei Hirse wird jede Rispe getrennt isoliert. Der Sterilitätsprozentsatz (X) für Weizen, Roggen, Tritikale und Hirse wird nach folgender Formel [formula] ermittelt.
(§4) Die Kornzahl in nicht isolierten ähren von Kontrollpflanzen wird bedingt für 100% Ansetzen bei freier Bestäubung angenommen.
(§5) Um zuverlässige Angaben zu erhalten, verwendet man 20 bis 25 Isolatoren jeder Wiederholung für Weisen und Tritikale, 10 bis 15 Gruppenisolatoren jeder Wiederholung für Roggen und Hirse.
Pflanzen von tetraploidem Roggen Sorte Belta werden in der V. Periode der Organogenese (nach Kupermann) mit einer 1%igen wässrigen Emulsion von N-(2-Dimethylamino- .äthyl)maleaminsäure, N-(3-Dimethylaminopropyl)maleaminsäure, N-Äthylmaleaminsäure, N-(2-Hydroxyäthyl)maleaminsäure bzw. Karbamoylmaleaminsäure behandelt. Die Emulsion enthält 0,5 Masse% Kalziumalkylbenzolsulfonat mit 12 bis 14 Kohlenstoffatomen und 0,01 Masso% Tetrahydrofuran. Der Verbrauch an Präparat beträgt 10 kg/ha. Die Prüfergebnisse sind in der Tabelle 5 dargestellt. […] Periode der Organogenese erhalten.

[6] = tested on: diploidem Roggen Sorte Voskhod 2; test: Field test of pollen sterilisation, diploid rye Voskhod 2; assay type: in vivo; settings: 1% aqueous emulsion, 10 kg/ha; for Prozentsatz der Sterilität / Anzahl von Körnern der Ähre bei freier Bestäubung / Anzahl von Körnern der Ähre im Isolator: period V of organogenesis; for Anzahl von Körnern der Ähre bei freier Bestäubung: free pollination; for Anzahl von Körnern der Ähre im Isolator: isolated ears; for Prozentsatz des Ansetzens von Körnern bei freier Bestäubung: period V, non-isolated control ears = 100%
From the text: Die Emulsion enthält 0,1 Masse% Kalziumalkylbenzolsulfonat und 0,01 Masse% Dimethylformamid. Der Verbrauch an Präparat beträgt 10 kg/ha. Als Kontrolle dienen Pflanzen, behandelt mit einem Lösungsmittel ohne Sterilisationsmittel.

[7] = tested on: diploidem Roggen Sorte Chulpan; test: Field test of pollen sterilisation, diploid rye Chulpan; assay type: in vivo; settings: 1% aqueous emulsion, 8 kg/ha; for Prozentsatz der Sterilität / Anzahl von Körnern der Ähre bei freier Bestäubung / Anzahl von Körnern der Ähre im Isolator: period V of organogenesis; for Anzahl von Körnern der Ähre bei freier Bestäubung: free pollination; for Anzahl von Körnern der Ähre im Isolator: isolated ears; for Prozentsatz des Ansetzens von Körnern bei freier Bestäubung: period V, non-isolated control ears = 100%
From the text: (§6) Mit dem Ahrenschiebe verwirklicht man die Isolierung von Hauptähren und anderen Stockwerken in Pergamentbeuteln. […] Bei Roggen schliesst man je Ähre 5 bis 7 verschiedene nebeneinander befindliche Pflanzen unter einen gemeinsamen Isolator ein. […] Der Sterilitätsprozentsatz (X) für Weizen, Roggen, Tritikale und Hirse wird nach folgender Formel [formula] ermittelt.
Die Emulsion enthält 0,01 Masse% Tetranydrofuran und 0,1 Masse% Kalziumalkylbenzolsulfonat mit 12 bis 14 Kohlenstoffatomen. Der Verbrauch an Präparat beträgt 8 kg/ha. Als Kontrolle dienen Pflanzen, behandelt mit einem Verdünner ohne Sterilisationsmittel.

[8] = tested on: diploidem Roggen Sorte Talovskaya 12; test: Field test of pollen sterilisation, diploid rye Talovskaya 12; assay type: in vivo; settings: 1% aqueous emulsion, 6 kg/ha; for Prozentsatz der Sterilität / Anzahl von Körnern der Ähre bei freier Bestäubung / Anzahl von Körnern der Ähre im Isolator: period V of organogenesis; for Anzahl von Körnern der Ähre bei freier Bestäubung: free pollination; for Anzahl von Körnern der Ähre im Isolator: isolated ears
From the text: as §6
Pflanzen von diploidem Roggen Sorte Talovskaya 12 werden in der V. Periode der Organogenese (nach Kupermann) mit einer 1%igen wässrigen Emulsion von N-(2-Di- methylaminoäthyl)-maleaminsäure, N-(3-Dimethylaminopropyl)-maleaminsäure, N-Äthylmaleaminsäure, N-(2-Hydroxyäthyl)maleaminsäure, N-Karbamoylmaleaminsäure behandelt. Die Emulsion enthält 0,01 Masse% Dodezylsulfat und 0,1 Masse% Kalziumalkylbenzolsulfonat mit 12 bis _14 Kohlenstoffatomen. Der Verbrauch an Präparat beträgt 6 kg/ha. Als Kontrolle dienen Pflanzen, behandelt mit einem Verdünner ohne Sterilisationsmittel.

[9] = tested on: Hirse Sorte Mironovskoe 94; test: Field test of pollen sterilisation, millet Mironovskoe 94; assay type: in vivo; settings: 1% aqueous emulsion, 8 kg/ha; for Prozentsatz der Sterilität / Anzahl von Körnern der Rispe bei freier Bestäubung / Anzahl von Körnern der Rispe im Isolator: period V of organogenesis; for Anzahl von Körnern der Rispe bei freier Bestäubung: free pollination; for Anzahl von Körnern der Rispe im Isolator: isolated panicles; for Prozentsatz des Ansetzens von Körnern bei freier Bestäubung: period V, non-isolated control = 100%
From the text: as §1, §2, §3, §4, §5
Pflanzen der Hirse Sorte Mironovskoe 94 werden in der V. Periode der Organogenese (nach Kupermann) mit einer 1%igen wässrigen Emulsion von N-(2-Dimethylaminoäthyl)maleaminsäure, N-(3-Dimethylaminopropyl)maleaminsäure, N-Äthylmaleaminsäure, N-(2-Hydroxyäthyl)maleaminsäure, N-Karbamoylmaleaminsäure behandelt. Die Emulsion enthält 0,01 Masse% Dimethylaulfoxid und 0,1 Masse% Kalziumalkylbenzolsulfonat mit 12 bis 14 Kohlenstoffatomen. Der Verbrauch an Präparat beträgt 8 kg/ha. Als Kontrolle dienen Pflanzen, behandelt mit einem Verdünner ohne Sterilisationsmittel. Die Prüfergebnisse sind in der Tabelle 12 dargestellt. […] Periode der Organogenese erhalten.

[10] = Toxicity test in animals (LD50); settings: in vivo; animal test, per kg animal weight; species and route not given
From the text: Alle erfindungsgemässen N-substituierten Maleaminsäuren, welche als Sterilisationsmittel zur Verwendung kommen, waren auf die Toxizität im Tierversuch geprüft. Die Prüfergebnisse haben ergeben, dass die angegebenen Verbindungen von schwacher oder mittlerer Toxizität sind.

| Structure (SMILES) | Prozentsatz der Sterilität [1] | Anzahl von Körnern der Ähre bei freier Bestäubung [1] | Anzahl von Körnern der Ähre im Isolator [1] | Prozentsatz des Ansetzens von Körnern bei freier Bestäubung [1] | Prozentsatz der Sterilität [2] | Anzahl von Körnern der Ähre bei freier Bestäubung [2] | Anzahl von Körnern der Ähre im Isolator [2] | Prozentsatz des Ansetzens von Körnern bei breier Bestäubung [2] | Prozentsatz der Sterilität [3] | Anzahl von Körnern der Ähre bei freier Bestäubung [3] | Anzahl von Körnern der Ähre im Isolator [3] | Prozentsatz des Ansetzens von Körnern bei freier Bestäubung [3] | Prozentsatz der Sterilität [4] | Anzahl von Körnern der Ähre bei freier Bestäubung [4] | Anzahl von Körnern der Ähre im Isolator [4] | Prozentsatz des Ansetzens von Körnern bei freier Bestäubung [4] | Prozentsatz der Sterilität [5] | Anzahl von Körnern der Ähre bei freier Bestäubung [5] | Anzahl von Körnern der Ähre im Isolator [5] | Prozentsatz des Ansetzens von Körnern bei freier Bestäubung [5] | further results |
| --- | --- | --- | --- | --- | --- | --- | --- | --- | --- | --- | --- | --- | --- | --- | --- | --- | --- | --- | --- | --- | --- |
| CCNC(=O)/C=C\C(=O)O [Beispiel 3, N-Äthylmaleaminsäure] | 99,5% | 40,7 | 0,2 | 95,5% | 99,4% | 42,1 | 0,2 | 98,1% | 98,5% | 26,7 | 0,4 | 97,1% | 100,0% | 28,2 | 0,0 | 93,7% | 99,4% | 52,3 | 0,3 | 95,4% | Prozentsatz der Sterilität [6]: 100,0%; Anzahl von Körnern der Ähre bei freier Bestäubung [6]: 53,0; Anzahl von Körnern der Ähre im Isolator [6]: 0,0; Prozentsatz des Ansetzens von Körnern bei freier Bestäubung [6]: 96,0%; Prozentsatz der Sterilität [7]: 99,4%; Anzahl von Körnern der Ähre bei freier Bestäubung [7]: 49,8; Anzahl von Körnern der Ähre im Isolator [7]: 0,3; Prozentsatz des Ansetzens von Körnern bei freier Bestäubung [7]: 87,7%; Prozentsatz der Sterilität [8]: 100,0%; Anzahl von Körnern der Ähre bei freier Bestäubung [8]: 50,1; Anzahl von Körnern der Ähre im Isolator [8]: 0,0; Prozentsatz der Sterilität [9]: 100,0%; Anzahl von Körnern der Rispe bei freier Bestäubung [9]: 200,8; Anzahl von Körnern der Rispe im Isolator [9]: 0,0; Prozentsatz des Ansetzens von Körnern bei freier Bestäubung [9]: 88,3%; LD50 [10]: 2000 mg/kg |
| O=C(O)/C=C\C(=O)NCCO [Beispiel 4, N-(2-Hydroxyäthyl)-maleaminsäure] | 99,3% | 39,8 | 0,3 | 93,4% | 100,0% | 37,1 | 0,0 | 86,5% | 100,0% | 27,0 | 0,0 | 98,2% | 100,0% | 28,7 | 0,0 | 95,3% | 99,6% | 51,6 | 0,2 | 94,2% | Prozentsatz der Sterilität [6]: 98,4%; Anzahl von Körnern der Ähre bei freier Bestäubung [6]: 52,2; Anzahl von Körnern der Ähre im Isolator [6]: 0,8; Prozentsatz des Ansetzens von Körnern bei freier Bestäubung [6]: 94,6%; Prozentsatz der Sterilität [7]: 99,8%; Anzahl von Körnern der Ähre bei freier Bestäubung [7]: 50,1; Anzahl von Körnern der Ähre im Isolator [7]: 0,1; Prozentsatz des Ansetzens von Körnern bei freier Bestäubung [7]: 88,2%; Prozentsatz der Sterilität [8]: 99,3%; Anzahl von Körnern der Ähre bei freier Bestäubung [8]: 53,2; Anzahl von Körnern der Ähre im Isolator [8]: 0,3; Prozentsatz des Ansetzens von Körnern bei freier Bestäubung ([8]; period V, non-isolated control ears = 100%): 94,7%; Prozentsatz der Sterilität [9]: 100,0%; Anzahl von Körnern der Rispe bei freier Bestäubung [9]: 215,0; Anzahl von Körnern der Rispe im Isolator [9]: 0,0; Prozentsatz des Ansetzens von Körnern bei freier Bestäubung [9]: 94,6%; LD50 [10]: 1500 mg/kg |
